{"source": "ChEMBL document CHEMBL1201862", "about": "“PubChem BioAssay data set” (2004)", "key": {"[1]": {"assay": "cervical cancer cell viability loss – HeLa, 24 h, plate reader, powder samples, set 3, cytotoxicity control, dose response (AID 651864)", "type": "functional, cell-based"}, "[2]": {"assay": "A Cell-Based Confirmatory Screen for Compounds that Inhibit VEEV, TC-83 (5).", "type": "functional"}, "[3]": {"assay": "A Cell-Based Confirmatory Screen for Compounds that Inhibit VEEV TC-83 (4).", "type": "functional"}, "[4]": {"assay": "inhibitors of non-replicating M. tuberculosis, dose response, luciferase, dry powder (AID 651619)", "type": "functional", "conditions": "Mycobacterium tuberculosis"}, "[5]": {"assay": "inhibitors of non-replicating M. tuberculosis, dose response, luciferase, dry powder (AID 651620)", "type": "functional", "conditions": "Mycobacterium tuberculosis"}, "[6]": {"assay": "growth inhibition of replicating M. tuberculosis, dose response, counter-screen, dry powder, IC90 (AID 651617)", "type": "functional", "conditions": "Mycobacterium tuberculosis"}, "[7]": {"assay": "Luminescence Cell-Based Dose Response HTS to Identify Activators of Luciferase Translation or Activity in H4 […] Cells. [Related pubchem assays: 1829 (Project Summary), 1814 (Primary HTS)]", "type": "functional"}, "[8]": {"test_system": "H4", "assay": "Luminescence Cell-Based Dose Response HTS to Identify Activators of 5'UTR Stem-Loop Driven Prion Protein mRNA Translation in H4 Neuroglioblastoma Cells. [Related pubchem assays: 1829 (Project Summary), 1814 (Primary HTS)]", "type": "functional", "conditions": "Homo sapiens"}, "[9]": {"test_system": "Vero", "assay": "mammalian cell viability reduction – secondary assay, cytotoxicity control for West Nile virus antiviral project, dose response (AID 1650)", "type": "functional", "conditions": "Chlorocebus sabaeus"}, "[10]": {"assay": "Luminescence Cell-Based Dose Retest to Confirm Inhibitors of Cancer Stem Cells. [Related pubchem assays (depositor defined):AID2717, AID2721]", "type": "functional", "conditions": "Homo sapiens"}, "[11]": {"biological_target": "T1, Replicative DNA helicase DnaB (Mycobacterium tuberculosis, UniProt P9WMR3)", "T1 sequence (P9WMR3 whole entry)": "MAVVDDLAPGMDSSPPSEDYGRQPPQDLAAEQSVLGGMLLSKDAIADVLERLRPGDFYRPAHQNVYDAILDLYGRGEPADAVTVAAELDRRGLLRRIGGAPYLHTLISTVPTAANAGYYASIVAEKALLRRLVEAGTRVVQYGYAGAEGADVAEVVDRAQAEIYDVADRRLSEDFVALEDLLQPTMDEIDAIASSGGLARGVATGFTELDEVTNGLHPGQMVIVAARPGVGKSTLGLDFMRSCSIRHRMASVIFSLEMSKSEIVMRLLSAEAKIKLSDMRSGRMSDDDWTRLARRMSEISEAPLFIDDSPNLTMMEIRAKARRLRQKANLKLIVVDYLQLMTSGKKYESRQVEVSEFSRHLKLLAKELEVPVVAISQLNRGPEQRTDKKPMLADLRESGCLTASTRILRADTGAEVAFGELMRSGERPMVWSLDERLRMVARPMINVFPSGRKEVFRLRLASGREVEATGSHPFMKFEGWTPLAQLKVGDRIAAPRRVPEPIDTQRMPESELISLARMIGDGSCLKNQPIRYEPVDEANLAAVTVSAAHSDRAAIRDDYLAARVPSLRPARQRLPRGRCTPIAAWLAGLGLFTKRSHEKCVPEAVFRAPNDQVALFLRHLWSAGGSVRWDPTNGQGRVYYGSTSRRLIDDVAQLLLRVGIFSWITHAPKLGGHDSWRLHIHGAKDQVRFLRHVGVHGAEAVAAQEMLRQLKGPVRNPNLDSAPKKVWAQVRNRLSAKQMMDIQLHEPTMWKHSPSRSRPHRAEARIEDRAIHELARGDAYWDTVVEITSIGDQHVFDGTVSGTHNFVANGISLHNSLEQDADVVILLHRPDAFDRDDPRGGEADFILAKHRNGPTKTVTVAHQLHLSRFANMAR", "assay": "DnaB intein splicing inhibitors, dose response, biochemical, cell-free fluorescence (AID 449749)", "type": "functional"}, "[12]": {"test_system": "Vero", "assay": "cells", "type": "functional, cell-based", "conditions": "Chlorocebus sabaeus"}, "[13]": {"biological_target": "T2, Protein RecA (Mycobacterium tuberculosis, UniProt P9WHJ3)", "T2 sequence (P9WHJ3 whole entry)": "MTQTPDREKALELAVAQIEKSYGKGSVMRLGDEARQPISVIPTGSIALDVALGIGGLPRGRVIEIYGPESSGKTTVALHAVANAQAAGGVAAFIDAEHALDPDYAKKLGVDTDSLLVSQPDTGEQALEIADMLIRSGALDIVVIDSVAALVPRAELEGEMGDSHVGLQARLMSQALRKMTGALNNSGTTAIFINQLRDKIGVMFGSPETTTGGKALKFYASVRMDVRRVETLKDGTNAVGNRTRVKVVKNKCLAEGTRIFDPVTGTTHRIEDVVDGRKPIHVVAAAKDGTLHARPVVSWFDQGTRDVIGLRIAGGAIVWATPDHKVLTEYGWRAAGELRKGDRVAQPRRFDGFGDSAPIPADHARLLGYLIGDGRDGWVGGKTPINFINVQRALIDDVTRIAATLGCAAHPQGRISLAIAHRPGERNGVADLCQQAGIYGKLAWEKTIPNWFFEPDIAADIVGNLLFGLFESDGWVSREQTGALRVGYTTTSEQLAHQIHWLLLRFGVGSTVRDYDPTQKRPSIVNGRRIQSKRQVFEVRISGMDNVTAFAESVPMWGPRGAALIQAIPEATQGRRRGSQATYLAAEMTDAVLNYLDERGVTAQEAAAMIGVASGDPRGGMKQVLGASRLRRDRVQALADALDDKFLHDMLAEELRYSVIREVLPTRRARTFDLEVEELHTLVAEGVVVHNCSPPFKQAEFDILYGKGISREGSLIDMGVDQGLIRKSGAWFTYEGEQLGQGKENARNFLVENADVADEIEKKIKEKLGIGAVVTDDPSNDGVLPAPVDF", "assay": "Fluorescence Cell-Free Homogeneous Dose Retest to Identify Inhibitors of RecA-Intein Splicing Activity. [Related pubchem assays (depositor defined):AID2097, AID2223, AID489010, AID492950]", "type": "functional"}, "[14]": {"test_system": "INS1", "assay": "INS-1E survival protection against cytokine death – cell-based, luminescence, retest, dose response (AID 449756);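 further: cell death triggered by IL-1 beta plus TNF-alpha plus IFN-gamma mixture; protective hits raise ATP signal compared with cytokine alone wells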", "type": "functional", "conditions": "Rattus norvegicus"}, "[15]": {"test_system": "Vero", "assay": "cells", "type": "functional", "conditions": "Chlorocebus sabaeus"}, "[16]": {"assay": "A Cell-Based Counter Screen testing Compounds that Inhibit VEEV TC-83, in strain KU V3526.", "type": "functional"}, "[17]": {"assay": "A Cell-Based Confirmatory Screen for Compounds that Inhibit VEEV, TC-83 (2).", "type": "functional"}}, "note": "Active and inactive are the calls of the source.", "data": [{"smiles": "CCn1nccc1/N=C/c1ccc(N2CCCC2)cc1", "values": [{"measurement": "AC50", "setting": "[1]", "value": "> 160 µM (inactive)"}]}, {"smiles": "CCN1CCN(Cc2nc3ccc([N+](=O)[O-])cc3c(=O)n2-c2ccc(F)cc2)CC1", "values": [{"measurement": "IC50", "setting": "[2]", "value": "0.99 µM (active)"}, {"measurement": "IC50", "setting": "[3]", "value": "0.6 µM (active)"}]}, {"smiles": "COc1ccc(-c2nnc(SCc3ccccn3)o2)cc1", "values": [{"measurement": "IC90", "setting": "[4]", "value": "4 µM (active)"}, {"measurement": "IC90", "setting": "[5]", "value": "4 µM (active)"}, {"measurement": "IC90", "setting": "[6]", "value": "62 µM (active)"}]}, {"smiles": "Clc1ccc2nnnc(-c3ccccc3)c2c1", "values": [{"measurement": "EC50", "setting": "[7]", "value": "2.12 µM (active)"}, {"measurement": "EC50", "setting": "[8]", "value": "> 120 µM (not active)"}, {"measurement": "CC50", "setting": "[9]", "value": "12.3 µM (active)"}, {"measurement": "AC50", "setting": "[10]", "value": "3.08 µM (active)"}, {"measurement": "AC50", "setting": "[11]", "value": "24.8 µM (active)"}, {"measurement": "IC50", "setting": "[12]", "value": "9.71 µM (active)"}, {"measurement": "EC50", "setting": "[13]", "value": "3.78 µM (active)"}, {"measurement": "AC50", "setting": "[14]", "value": "7.81 µM (active)"}, {"measurement": "CC50", "setting": "[15]", "value": "> 25 µM (active)"}, {"measurement": "IC50", "setting": "[16]", "value": "3.45 µM (active)"}, {"measurement": "IC50", "setting": "[17]", "value": "6.12 µM (active)"}]}]}
